Measurements: patent US20250353835A1, “N-TETRAZOLYL ARYL UREA-BASED DERIVATIVES, PREPARATION METHOD THEREFOR, AND USE THEREOF” (Hangzhou Yirui Pharmaceutical Technology Co., Ltd, priority 2022, published 2025)
Read-outs that look alike come from different tables or passages of the source.

Assays:
[1] = Intraocular and retinal drug concentration in rats after eye drops (HPLC); assay type: in vivo; conditions: both sexes, SD, rat, topical, 10 μL of 2% solution per eye, twice a day for 7 days, 2% eye drops twice a day; for concentration at 1 h after the second eye drop on Day 7: 1 h after administration
Text: 2.1 Experimental aminals: SPF grade male SD rats, weighed 180-200 g, were used and adaptively fed for one week.
2.2 Drugs and reagents: Compound 71 and Compound 8; sodium chloride injection (Guangxi Yuyuan Pharmaceutical Co., Ltd.); sterile filter having 0.22 μm pore size (Millex).
2.3 Experimental animal grouping: the animals were randomly divided into 3 groups (6 rats per group) of a negative control group (normal saline), a Compound 71 group and a Compound 8 group.
2.4 Administration method and sampling: 2% Compound (10 μl) dissolved in normal saline (after filtration) was dropped into the surface of each rat's eye with a pipette for 10 s. The eye drop was applied twice a day for a total of 7 days. Samples were taken at 1 and 16 hours after the second administration on Day 7 of administration to determine the ocular distribution concentration of the drug.
(§1) The first batch of samples: 1 hour after the second eye drop on Day 7: 3 rats (2 males and 1 female) were taken from each group. The bulbus oculi were removed, and were thoroughly rinsed for 3 times with normal saline using a pipette. The washing solution was quickly dried with a qualitative filter paper. The cornea, vitreous body and retina were separated under a stereomicroscope, and frozen at −80° C. for subsequent measurement.
as §1, with “second” for “first”, “On the morning of Day 8, i.e., at 16 hours” for “1 hour”, “7: the remaining” for “7:”, “(1 male” for “(2 males”, “2 females)” for “1 female)”, “detection.” for “measurement.”
2.7.3 Results of HPLC measurement of drug content in eye tissue: Under the selected chromatographic conditions for analysis, drug impurities were well separated. The chromatograms for a sample of standard solution, a sample of blank homogenate, a sample of blank homogenate added with Compound 71 or Compound 8, and a sample of retinal homogenate samples were compared. […] Under the selected HPLC measurement conditions, the average recovery rates for two compounds under test were both above 90%. […] The precision can meet the measurement standard. As shown by the accuracy results, the accuracy for all of the high, medium and low concentration retinal spiked quality control samples (QC) within the drug curve range was higher than 95%.

[2] = biological target: T1, human B1R (Homo sapiens, UniProt P46663); test: FLIPR calcium ion flux assay, inhibitory activity against human B1R; assay type: cell-based; conditions: HEK293 cells stably expressing human B1R; agonist [Lys-des-Arg9]-Bradykinin 4.6 nM (EC80); FLIPR method
T1 construct: host or cells: HEK293
T1 sequence (P46663 1-353): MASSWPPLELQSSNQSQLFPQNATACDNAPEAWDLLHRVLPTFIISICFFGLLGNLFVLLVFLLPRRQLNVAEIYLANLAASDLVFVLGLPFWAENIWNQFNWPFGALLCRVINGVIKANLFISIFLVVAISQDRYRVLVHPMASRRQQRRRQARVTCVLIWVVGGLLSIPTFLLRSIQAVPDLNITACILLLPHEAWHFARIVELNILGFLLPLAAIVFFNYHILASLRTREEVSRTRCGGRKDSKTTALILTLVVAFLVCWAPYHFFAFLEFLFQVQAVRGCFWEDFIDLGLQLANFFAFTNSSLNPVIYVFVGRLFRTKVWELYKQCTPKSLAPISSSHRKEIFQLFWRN
Summary of the method: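 HEK293 cells stably expressing human B1R, loaded with Fluo-4 Direct plus probenecid; compounds 9-point 1:5 series from 30 μM, duplicate, preincubated 10 min. Stimulation with [Lys-des-Arg9]-bradykinin at 4.6 nM final (EC80); peak fluorescence at 538 nm gave IC50.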

[3] = cornea, read-out: Content of test compound in Cornea
[4] = cornea, 16 h after administration, read-out: Content of test compound in Cornea
[5] = retina, read-out: Content of test compound in Retina
[6] = retina, 16 h after administration, read-out: Content of test compound in Retina
[7] = vitreous body, read-out: Content of test compound in Vitreous body
[8] = vitreous body, 16 hours after administration, read-out: Content of test compound in Vitreous body

concentration at 1 h after the second eye drop on Day 7 [1, 3] [ng/g]	concentration at 16 h after the second eye drop on Day 7 [1, 4] [ng/g]	concentration at 1 h after the second eye drop on Day 7 [1, 5] [ng/g]	concentration at 16 h after the second eye drop on Day 7 [1, 6] [ng/g]	concentration at 1 h after the second eye drop on Day 7 [1, 7] [ng/g]	concentration at 16 h after the second eye drop on Day 7 [1, 8] [ng/g]	IC50 [2] [nM]	Compound
101000 ± 28200	40700 ± 18800	55000 ± 6910	15800 ± 8410	18200 ± 4650	10100 ± 2670	14.9	CCOc1ccc(-c2c(F)cc(NC(=O)N3CCC(C(C)(C)C)CC3)cc2-c2nn[nH]n2)cn1 [Compound 8, 4-(tert-butyl)-N-(4-(6-ethoxypyrid-3-yl)-3-fluoro-5-(2H-tetrazol-5-yl)phenyl)piperidine-1-carboxamide]
93100 ± 16900	43500 ± 6590	64800 ± 18300	6070 ± 3060	24200 ± 7070	12700 ± 3490	66.1	CCOc1ccc(-c2ccc(NC(=O)N[C@H]3CC[C@H](C)CC3)cc2-c2nn[nH]n2)cn1 [Compound 71, 1-(4-(6-ethoxypyrid-3-yl)-3-(2H-tetrazol-5-yl)phenyl)-3-((trans)-4-methylcyclohexyl)urea]
